# From PubChem BioAssay AID563 (University of Pittsburgh Molecular Library Screening Center, 2006)
# Calls of active or inactive are those of the source. The rule behind the calls is not given here.
# Molecular target: Dual specificity protein phosphatase 1 (Homo sapiens) (UniProt P28562)
# Experiment: MKP-1 phosphatase inhibitors, repeat potency, dose response, biochemical, reproducibility testing, probe assessment (AID 563)
# Settings: recombinant MKP-1 phosphatase, fluorescence intensity
# Sequence of Dual specificity protein phosphatase 1 (Homo sapiens) (P28562 whole entry, looked up): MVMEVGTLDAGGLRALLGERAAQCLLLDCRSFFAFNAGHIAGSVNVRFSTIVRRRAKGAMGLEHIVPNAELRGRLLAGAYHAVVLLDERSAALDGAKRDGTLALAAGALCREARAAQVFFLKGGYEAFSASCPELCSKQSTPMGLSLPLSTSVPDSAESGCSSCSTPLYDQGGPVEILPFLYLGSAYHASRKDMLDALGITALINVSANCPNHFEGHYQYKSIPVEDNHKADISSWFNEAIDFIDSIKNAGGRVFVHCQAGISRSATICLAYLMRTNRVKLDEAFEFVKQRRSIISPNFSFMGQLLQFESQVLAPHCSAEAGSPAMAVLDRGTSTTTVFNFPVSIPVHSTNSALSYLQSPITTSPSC
row,IC50,Compound
1,32.8 µM,CCOC(=O)c1ccc2c(c1)C1C=CCC1C(C(=O)O)N2 (stereo not drawn)
2,22.8 µM,CC(C)Sc1nc2sc3c(c2c2nnc(SCC(=O)NCc4ccco4)n12)CCCC3
3,17.1 µM,Cc1ccc(C)n1-c1cccc(C(=O)O)c1
4,49.7 µM,Cc1ccc(-c2csc(NC(=O)c3ccno3)n2)cc1
5,37 µM,CCCCCNC(=O)c1ccc2c(=O)[nH]c3c(C(=O)NCC4CCCO4)sc(=S)n3c2c1 (stereo not drawn)
6,46.9 µM,Cc1cccc(N2CCN(C(=O)Cc3c(C(=O)O)[nH]c4ccc(Cl)cc34)CC2)c1C
7,> 50 µM (inactive),O=C1C(C2=C(O)c3ccccc3C2=O)=Nc2ccccc21
8,49.8 µM,Cc1nc2c(C(=O)NCCC3=CCCCC3)c[nH]n2c(=O)c1Cl
